In brackets after ≈: the same amount, converted by molar mass.
Assays:
Botrytis cinerea [1] = experiment: Dose response, sprayed clamshells; strawberries (Example 4); format: in vivo; conditions: spraying
Experimental: (§1) Five milligrams of Compound A was dissolved in 1 ml of ethanol prior to being uniformly administered to the interior of the clamshell by painting or spraying, and then dried for 5 minutes. After coating the clamshells with Compound A using various application techniques (i.e., sublimation, spraying, or painting), eight ethanol-washed strawberries were placed in the clamshell with stem end facing downwards. Each strawberry fruit was wounded using a T15 screwdriver tip to a uniform depth of eight mm (8 mm). […] Uninoculated strawberries were removed from their commercial package, and directly transferred into treated clamshells without any washing or inoculation steps.
(§2) Treated clamshells lids were closed, and then placed at 1° C. for an initial time period of 5 days. Clamshells were then removed from low temperature, and held for a second time period of 6 days at room temperature where the point of inoculation on the strawberry fruits was assessed for indication of disease incidence reported as a percentage (%). Severity of disease incidence was also reported.
This in vivo assay was used to evaluate the ability of different concentrations of Compound A to volatilize from clamshell in order to control or inhibit fruit infection by pathogenic microorganism, Botrytis cinerea. This experiment was conducted exactly as described in Example 1, with a few exceptions. After equilibrating the clamshell overnight at 21° C., Compound A was administered to the clamshells by spraying only. Compound A was sprayed onto the surface of the clamshells at a final treatment rate of 5 mg/clamshell or 1 mg/clamshell. The clamshells were then permitted to dry for 5 minutes. Strawberries were inoculated with Botrytis cinerea, placed within the clamshells for the initial time period (i.e., 5 days), and assessed for disease incidence and severity over the second time period (i.e., 6 days) as described in Example 1.

Botrytis cinerea [2] = experiment: Dose response, vapor-coated clamshells; strawberries (Example 3); format: in vivo; conditions: Inoculated Fruit, sublimation
Experimental: as §1, §2
This in vivo assay was used to evaluate the ability of vaporized Compound A to volatilize from a clamshell in order to control or inhibit pathogenic microorganisms. This experiment was conducted exactly as described in Example 1, with a few exceptions. After equilibrating the clamshell overnight at 21° C., Compound A was administered to the clamshell as a vapor only. In addition, Compound A was vapor-coated onto the surface of the clamshell at a final treatment rate of 3.16 mg/clamshell, 1 mg/clamshell, or 0.316 mg/clamshell. After vapor-coating application, Compound A headspace was permitted to equilibrate overnight at 21° C. Strawberries were inoculated with Botrytis cinerea, placed within the clamshells for an initial time period, and assessed for disease incidence and severity over a second time period as described in Example 1.

Botrytis cinerea [3] = experiment: Volatile MIC assay (Example 9); format: cell-based; conditions: 72 h, headspace concentration, 3 days at 23 C, read-out: MIC (mg/L) BOTRCI
How it was run: (§3)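 Minimum inhibitory concentration of the volatile was read from fungal growth on PDA where the compound reached the inoculum only through the sealed well headspace. Treated filter disks, dried 5 minutes after acetone application, were held on the sealing film in duplicate.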

Penicillium expansum = experiment: Volatile MIC assay (Example 9); format: cell-based; conditions: 72 h, headspace concentration, 3 days at 23 C, read-out: MIC (mg/L) PENIEX
How it was run: as §3

Glomerella cingulata = experiment: Volatile MIC assay (Example 9); format: cell-based; conditions: Colletotrichum gloeosporioides, 72 h, headspace concentration, 3 days at 23 C, read-out: MIC (mg/L) GLOMCI
How it was run: as §3

Alternaria alternata = experiment: Volatile MIC assay (Example 9); format: cell-based; conditions: 72 h, headspace concentration, 3 days at 23 C, read-out: MIC (mg/L) ALTEAL
How it was run: as §3

[4] = Inoculated Fruit, 1 mg/clamshell, Day 0
[5] = Inoculated Fruit, 1 mg/clamshell, Day 1
[6] = Inoculated Fruit, 1 mg/clamshell, Day 2
[7] = Inoculated Fruit, 1 mg/clamshell, Day 3
[8] = Inoculated Fruit, 1 mg/clamshell, Day 4
[9] = Inoculated Fruit, 1 mg/clamshell, Day 5
[10] = Inoculated Fruit, 1 mg/clamshell, Day 6
[11] = Inoculated Fruit, 5 mg/clamshell, Day 0
[12] = Inoculated Fruit, 5 mg/clamshell, Day 1
[13] = Inoculated Fruit, 5 mg/clamshell, Day 2
[14] = Inoculated Fruit, 5 mg/clamshell, Day 3
[15] = Inoculated Fruit, 5 mg/clamshell, Day 4
[16] = Inoculated Fruit, 5 mg/clamshell, Day 5
[17] = Inoculated Fruit, 5 mg/clamshell, Day 6
[18] = Uninoculated Fruit, 5 mg/clamshell, Day 0
[19] = Uninoculated Fruit, 5 mg/clamshell, Day 1
[20] = Uninoculated Fruit, 5 mg/clamshell, Day 2
[21] = Uninoculated Fruit, 5 mg/clamshell, Day 6

Structure (SMILES): OB1OCc2cc(F)ccc21 [Compound A, 5-fluoro-1,3-dihydro-1-hydroxy-2,1-benzoxaborole]
- Gray Mold Incidence (%) (Botrytis cinerea [1]; [4]): 0.0%
- Gray Mold Severity (0-4) (Botrytis cinerea [1]; [4]): 0.0
- Gray Mold Incidence (%) (Botrytis cinerea [1]; [5]): 0.0%
- Gray Mold Severity (0-4) (Botrytis cinerea [1]; [5]): 0.0
- Gray Mold Incidence (%) (Botrytis cinerea [1]; [6]): 1.3%
- Gray Mold Severity (0-4) (Botrytis cinerea [1]; [6]): 0.0
- Gray Mold Incidence (%) (Botrytis cinerea [1]; [7]): 3.8%
- Gray Mold Severity (0-4) (Botrytis cinerea [1]; [7]): 0.1
- Gray Mold Incidence (%) (Botrytis cinerea [1]; [8]): 11.3%
- Gray Mold Severity (0-4) (Botrytis cinerea [1]; [8]): 0.2
- Gray Mold Incidence (%) (Botrytis cinerea [1]; [9]): 36.3%
- Gray Mold Severity (0-4) (Botrytis cinerea [1]; [9]): 0.6
- Gray Mold Incidence (%) (Botrytis cinerea [1]; [10]): 52.5%
- Gray Mold Severity (0-4) (Botrytis cinerea [1]; [10]): 1.5
- Gray Mold Incidence (%) (Botrytis cinerea [1]; [11]): 0.0%
- Gray Mold Severity (0-4) (Botrytis cinerea [1]; [11]): 0.0
- Gray Mold Incidence (%) (Botrytis cinerea [1]; [12]): 0.0%
- Gray Mold Severity (0-4) (Botrytis cinerea [1]; [12]): 0.0
- Gray Mold Incidence (%) (Botrytis cinerea [1]; [13]): 0.0%
- Gray Mold Severity (0-4) (Botrytis cinerea [1]; [13]): 0.0
- Gray Mold Incidence (%) (Botrytis cinerea [1]; [14]): 0.0%
- Gray Mold Severity (0-4) (Botrytis cinerea [1]; [14]): 0.0
- Gray Mold Incidence (%) (Botrytis cinerea [1]; [15]): 0.0%
- Gray Mold Severity (0-4) (Botrytis cinerea [1]; [15]): 0.0
- Gray Mold Incidence (%) (Botrytis cinerea [1]; [16]): 0.0%
- Gray Mold Severity (0-4) (Botrytis cinerea [1]; [16]): 0.0
- Gray Mold Incidence (%) (Botrytis cinerea [1]; [17]): 0.0%
- Gray Mold Severity (0-4) (Botrytis cinerea [1]; [17]): 0.0
- Gray Mold Incidence (%) (Botrytis cinerea [1]; Uninoculated Fruit, 1 mg/clamshell, Day 0): 0.0%
- Gray Mold Incidence (%) (Botrytis cinerea [1]; Uninoculated Fruit, 1 mg/clamshell, Day 1): 1.9%
- Gray Mold Incidence (%) (Botrytis cinerea [1]; Uninoculated Fruit, 1 mg/clamshell, Day 2): 21.6%
- Gray Mold Incidence (%) (Botrytis cinerea [1]; Uninoculated Fruit, 1 mg/clamshell, Day 3): 89.5%
- Gray Mold Incidence (%) (Botrytis cinerea [1]; Uninoculated Fruit, 1 mg/clamshell, Day 4): 100.0%
- Gray Mold Incidence (%) (Botrytis cinerea [1]; Uninoculated Fruit, 1 mg/clamshell, Day 5): 100.0%
- Gray Mold Incidence (%) (Botrytis cinerea [1]; Uninoculated Fruit, 1 mg/clamshell, Day 6): 100.0%
- Gray Mold Incidence (%) (Botrytis cinerea [1]; [18]): 0.5%
- Gray Mold Severity (0-4) (Botrytis cinerea [1]; [18]): 0.1
- Gray Mold Incidence (%) (Botrytis cinerea [1]; [19]): 0.5%
- Gray Mold Severity (0-4) (Botrytis cinerea [1]; [19]): 0.1
- Gray Mold Incidence (%) (Botrytis cinerea [1]; [20]): 0.9%
- Gray Mold Severity (0-4) (Botrytis cinerea [1]; [20]): 0.3
- Gray Mold Incidence (%) (Botrytis cinerea [1]; Uninoculated Fruit, 5 mg/clamshell, Day 3): 3.3%
- Gray Mold Incidence (%) (Botrytis cinerea [1]; Uninoculated Fruit, 5 mg/clamshell, Day 4): 16.2%
- Gray Mold Incidence (%) (Botrytis cinerea [1]; Uninoculated Fruit, 5 mg/clamshell, Day 5): 31.9%
- Gray Mold Incidence (%) (Botrytis cinerea [1]; [21]): 78.5%
- Gray Mold Severity (0-4) (Botrytis cinerea [1]; [21]): 3.5
- Gray Mold Severity (0-4) (Botrytis cinerea [2]; 0.316 mg per clamshell, Day 1): 0.4
- Gray Mold Severity (0-4) (Botrytis cinerea [2]; 0.316 mg per clamshell, Day 2): 1.3
- Gray Mold Severity (0-4) (Botrytis cinerea [2]; 0.316 mg per clamshell, Day 3): 2.2
- Gray Mold Severity (0-4) (Botrytis cinerea [2]; 0.316 mg per clamshell, Day 4): 3.4
- Gray Mold Severity (0-4) (Botrytis cinerea [2]; 0.316 mg per clamshell, Day 5): 3.8
- Gray Mold Severity (0-4) (Botrytis cinerea [2]; 0.316 mg per clamshell, Day 6): 3.9
- Gray Mold Severity (0-4) (Botrytis cinerea [2]; 1.00 mg per clamshell, Day 1): 0.0
- Gray Mold Severity (0-4) (Botrytis cinerea [2]; 1.00 mg per clamshell, Day 2): 0.0
- Gray Mold Severity (0-4) (Botrytis cinerea [2]; 1.00 mg per clamshell, Day 3): 0.0
- Gray Mold Severity (0-4) (Botrytis cinerea [2]; 1.00 mg per clamshell, Day 4): 0.1
- Gray Mold Severity (0-4) (Botrytis cinerea [2]; 1.00 mg per clamshell, Day 5): 0.4
- Gray Mold Severity (0-4) (Botrytis cinerea [2]; 1.00 mg per clamshell, Day 6): 0.7
- Gray Mold Severity (0-4) (Botrytis cinerea [2]; 3.16 mg per clamshell, Day 1): 0.0
- Gray Mold Severity (0-4) (Botrytis cinerea [2]; 3.16 mg per clamshell, Day 2): 0.0
- Gray Mold Severity (0-4) (Botrytis cinerea [2]; 3.16 mg per clamshell, Day 3): 0.0
- Gray Mold Severity (0-4) (Botrytis cinerea [2]; 3.16 mg per clamshell, Day 4): 0.0
- Gray Mold Severity (0-4) (Botrytis cinerea [2]; 3.16 mg per clamshell, Day 5): 0.1
- Gray Mold Severity (0-4) (Botrytis cinerea [2]; 3.16 mg per clamshell, Day 6): 0.2
- MIC (Botrytis cinerea [3]): 2.2 mg/L (≈ 14.5 µM)
- MIC (Penicillium expansum): 2.2 mg/L (≈ 14.5 µM)
- MIC (Glomerella cingulata): < 0.6 mg/L
- MIC (Alternaria alternata): < 0.6 mg/L

— patent publication US12329158B2, “Large-scale methods of uniformly coating packaging surfaces with a volatile antimicrobial to preserve food freshness” (AGROFRESH INC., priority 2013, dated 2025)
